# Earlier results, collected in patent US9834484B1, “Plant enhancer and a method of using the same” (priority 2016, dated 2017).
# Test system: tumor growth
# Details: some studies show
substance,measurement,value
β-glucan,inhibits tumor growth,more than 95%
